Assay [1] has as its system high-fat diet mice. As to the kind of experiment: High-fat diet mice: body weight and food intake. In kind it is in vivo, C57BL/6J mice. The conditions noted are these: 5 mg/kg/day oral, 13 weeks, 60% HFD, vs HFD-V, FIG. 6. How it is done:
(§1) The care and use of experimental animals were carried out with the approval of the Institutional Animal Care and Use Committee of Pohang University of Science and Technology. C57BL/6J mice were purchased from Japan SLC, Inc. 50 four-week-old male C57/BL/6J mice were acclimated for 2 weeks. The mice were randomly divided and orally administered with vehicle or 5 mg/kg/day of D6 or WY14643 for 13 weeks (oral gavage), and obesity was induced by a 60% high-fat diet (#D12492, Research diets, NJ, USA). Body weights and food intakes were measured weekly from 6 weeks of age, and after 16 weeks of age, adipose tissue and muscle volumes were measured using a Trimodality imaging system.
(§2) To confirm a metabolic disease inhibitory effect of the compound represented by Chemical Formula 1 through animal experiments, mice were acclimated for 2 weeks, and then obesity was induced by feeding a 60% high fat diet (HFD) and orally administered with vehicle or 5 mg/kg/day of the compound represented by Chemical Formula 1 (D6) or WY14643 for 13 weeks. Experiments such as IP-GTT, IP-ITT, and micro-CT were performed at the week 10 of drug administration (FIG. 5).

The test system of assay [2] is high-fat diet mice. As to the kind of experiment: High-fat diet mice: organ weights. The format is in vivo, C57BL/6J mice. The following applies: 5 mg/kg/day oral, 60% HFD, vs HFD-V, FIG. 9. How it is done:
as §1, §2

Consider one compound from patent publication US20260027083A1, “USE OF PPAR AGONIST FOR IMPROVEMENT OF ENERGY METABOLISM” (NOVMETAPHARMA CO., LTD., priority 2022, published 2026).

Take `COc1ccc(-c2cc(=O)oc3c(C)c(OC(=O)[C@H](Cc4c[nH]c5ccccc45)NC(=O)OC(C)(C)C)ccc23)cc1` [Chemical Formula 1, [4-(4-methoxyphenyl)-8-methyl-2-oxochromen-7-yl] (2S)-3-(1H-indol-3-yl)-2-[(2-methylpropan-2-yl)oxycarbonylamino]propanoate]: in the assay on high-fat diet mice [1], the food intake entry is reported as “no significant change” and the “rate of weight gain” value was “significantly reduced”. In the assay with high-fat diet mice [2], the “epididymal white adipose tissue (eWAT) weight” value is given as “reduced” and the liver weight result is on record as “reduced”.
